Assay results: patent US7582300B2, “Modulation of gamma delta T cells to regulate airway hyperresponsiveness” (National Jewish Health, priority 1999, dated 2009)

What was measured:
γδ T cells = assay: Stimulation of γδ T cells / γδ T cell hybridomas in vitro; type: cell-based; settings: for stimulation of γδ T cell hybridomas: phospholipids tested by the inventors
αβ T cell hybridomas = assay: Stimulation of αβ T cell hybridomas in vitro; type: cell-based

Substance	stimulation of γδ T cell hybridomas (γδ T cells)	stimulation of αβ T cell hybridomas (αβ T cell hybridomas)	stimulation of γδ T cells by peptides (γδ T cells)
Cardiolipin	selectively stimulates γδ T cell hybridomas	not αβ T cell hybridomas	–
FALQLEL [SEQ ID NO:1]	–	–	stimulatory for γδ T cells
FGLQLEL (listed as Mycobacterium leprae) [SEQ ID NO:2, peptide from mycobacterial HSP-60 protein (from M. leprae)]	–	–	stimulatory for γδ T cells
phosphatidyl-glycerol	weakly stimulatory	–	–
